Assay results: patent US20100143310A1, “SPINAL NERVE REPAIR PROMOTING THERAPEUTICS CONTAINING GHRELIN OR ITS DERIVATIVES OR SUBSTANCES THAT ACT ON GHS-R1a AS AN ACTIVE INGREDIENT” (JAPAN AS REPRESENTED BY PRESIDENT OF NATIONAL …, priority 2006, published 2010)
Where no end group is shown, it is not given here. The star is where a group is joined. Octanoyl = CCCCCCCC(=O)*

Legend:
[1] = system: cultured spinal neuronal precursor cells; test: BrdU incorporation into cultured spinal neuronal precursor cells (Cell Proliferation ELISA); format: cell-based, Wistar rat; conditions: for BrdU incorporation into cultured spinal neuronal precursor cells, Mean ± S.D.: incubation 12 hours, n=6, Control 100.0 ± 6.7; for concentration that increased the BrdU incorporation into the cells: 12 hours
Text: Embryos were extracted from a pregnant Wistar rat at day 17 by opening the abdomen under anesthesia. Spinal cords were collected from these embryos and subjected to papain digestion in Hank's balanced salt solution; as a result of subsequent mechanical separation by pipetting, a dispersion of embryonic spinal cord cells was obtained. After being filtered and centrifuged, the dispersed cells were suspended in a DMEM medium containing NaHCO3, 5% fetal bovine serum, penicillin (100 U/mL) and streptomycin (100 μg/mL), followed by plating onto laminin-coated 96-well multi-plates at 10^5 cells per well. After incubation for 4 days, 5-bromo-2'-deoxyuridine (BrdU) (10 μM) was added and incubation was conducted for 6 hours, followed by addition of rat ghrelin (0.003-300 nM) and subsequent incubation for 12 hours. After the end of incubation, the cells were recovered and using Cell Proliferation ELISA Kit (Roche Diagnostic GmbH, Mannheim, Germany), the amount of BrdU incorporation into the cells was measured to investigate the action of ghrelin on BrdU incorporation. Embryos were extracted from a pregnant Wistar rat at day 16 by opening the abdomen under anesthesia. Spinal cords were collected from these embryos and subjected to papain digestion in Hank's balanced salt solution; as a result of subsequent mechanical separation by pipetting, a dispersion of embryonic spinal cord cells was obtained. After being filtered and centrifuged, the dispersed cells were suspended in a DMEM medium containing NaHCO3, 5% fetal bovine serum, penicillin (100 U/mL) and streptomycin (100 μg/mL), followed by plating onto laminin-coated 96-well multi-plates at 10^5 cells per well. After incubation for 4 days, 5-bromo-2'-deoxyuridine (BrdU) (10 μM) was added and incubation was conducted for 6 hours; further, rat ghrelin, ghrelin(1-5)-Lys-NH2 (GSS(n-octanoyl)FLK-NH2), ghrelin(1-7)-Lys-NH2 ([…]) or MK-0677 having the structure indicated below was added in amounts of 0.03-3 nM and incubation was conducted for 12 hours before investigating the action of ghrelin on BrdU incorporation. After the end of incubation, the cells were recovered and using Cell Proliferation ELISA Kit (Roche Diagnostic GmbH, Mannheim, Germany), the amount of BrdU incorporation into the cells was measured to investigate the action of ghrelin on BrdU incorporation.

[2] = system: spinal neuron proliferating action of ghrelin; test: Effect of L-type calcium channel blocker on the spinal neuron proliferating action of ghrelin; format: cell-based
[3] = system: spinal neuronal precursor cells; test: Detection of BrdU positive cells with anti-BrdU antibody; format: cell-based, Wistar rat; conditions: FIG. 5, compared to the case where ghrelin was not allowed to act (physiological saline)
Text: (§1) Embryos were extracted from a pregnant Wistar rat at day 17 by opening the abdomen under anesthesia. Spinal cords were collected from these embryos and subjected to papain digestion in Hank's balanced salt solution; as a result of subsequent mechanical separation by pipetting, a dispersion of embryonic spinal cord cells was obtained. After being filtered and centrifuged, the dispersed cells were suspended in a DMEM medium containing NaHCO3, 5% fetal bovine serum, penicillin (100 U/mL) and streptomycin (100 μg/mL), followed by plating onto laminin-coated 96-well multi-plates at 10^5 cells per well. After incubation for 4 days, 5-bromo-2′-deoxyuridine (BrdU) (10 μM) was added and incubation was conducted for 6 hours, followed by addition of rat ghrelin (0.003-300 nM) and subsequent incubation for 12 hours.
After the end of incubation, the cells were fixed with methanol and glacial acetic acid, had their DNA denatured with 2 N HCl; thereafter, the BrdU incorporated into the cells was measured by detecting the BrdU positive cells using a rat anti-BrdU monoclonal antibody (1:1000, Abcam, Cambridge, UK) as a primary antibody, and also using Cy™ 3-conjugated donkey anti-rat IgG polyclonal antibody (1:1000, Jackson ImmunoResearch Laboratories, Inc., PA, USA) as a secondary antibody, in order to investigate the action of ghrelin for proliferating spinal precursor cells. […]

[4] = system: spinal neuronal precursor cells; test: Double immunostaining for Nestin or Map2 and BrdU in proliferating spinal cord cells; format: cell-based, Wistar rat; conditions: FIG. 3-1 A and B; BrdU in nuclei of Nestin-stained cells, not in Map2-stained cells
Procedure: Double immunostaining was conducted in order to confirm the co-presence of the neuronal precursor cell marker Nestin or the neutron marker Map2 and GHS-R in proliferating cells (cells that were incorporating BrdU).
as §1, with “fetal” for “embryonic”, “well.” for “well. After incubation for 4 days, 5-bromo-2′-deoxyuridine (BrdU) (10 μM) was added and incubation was conducted for 6 hours, followed by addition of rat ghrelin (0.003-300 nM) and subsequent incubation for 12 hours.”
To the plates, 5-bromo-2′-deoxyuridine (BrdU) (10 μM) was added and incubation was conducted for 4 days to thereby incorporate the BrdU into the spinal cord cells. The spinal cord cells were fixed with methanol and glacial acetic acid at −20° C. for 20 minutes. After DNA denaturation with 2 M HCl, 2% normal goat serum in PBS was used to perform blocking at room temperature for 30 minutes. […]

[5] = system: rat models with injured spinal cord; test: Grafting spinal neuronal precursor cells and locally administering ghrelin to rat models with injured spinal cord; format: in vivo, SD rats
Procedure: In accordance with the procedure described in Morino, T. et al, Neuroscience Research, 2003, vol. 46, pp 309-318, the grafting of spinal neuronal precursor cells and local administration of ghrelin to rat models with injured spinal cord were assessed. Male SD rats (8 to 9 weeks old) were anesthetized with pentobarbital and incised in the back to expose a vertebra ([…]). After excising the vertebral arch, a dental drill was used to open a window with a diameter of […], and a stainless steel needle with a silicone rubber fixed thereto was applied vertically, followed by loading of the top with a 20-g weight. Following a compression time of 30 minutes, a damaging drop equivalent to a weight of about 100 g was finally applied from above to construct models suffering a movement disorder in the lower limbs. The animals were divided into three groups: 1) a group under sham operation; 2) a control group with injured spinal cord; and 3) a group with injured spinal cord, treated by cell grafting, and locally administered with ghrelin. The group under sham operation received laminectomy but was simply sutured in the muscle and skin thereafter. After injuring the spinal cord, cultured spinal neuronal precursor cells (10^5 cells/25 μL) were grafted subdurally. Rat ghrelin was administered subdurally in an amount of 1 nmol together with the cells.
Twenty-four hours after the operation, the rats were transferred into a see-through cage and observed for the frequency of their standing up (by 3-minute observation). More specifically, the frequency of the rat standing up (in such a posture that it lifted the upper limbs and supported the body weight only with the lower limbs) was counted to assess the function of its hind limbs.

Compound	BrdU incorporation into cultured spinal neuronal precursor cells, Mean ± S.D. ([1]; 0.03 nM)	BrdU incorporation into cultured spinal neuronal precursor cells, Mean ± S.D. ([1]; 0.3 nM)	BrdU incorporation into cultured spinal neuronal precursor cells, Mean ± S.D. ([1]; 3 nM)	concentration that increased the BrdU incorporation into the cells ([1]; Example 5, 0.03-3 nM tested) [nM]	suppression of the spinal neuron proliferating action of ghrelin [2]	concentration that increased the BrdU incorporation into the cells ([1]; Example 4, FIG. 4, rat ghrelin 0.003-300 nM tested) [nM]	BrdU positive cells detected [3]	cell type proliferated after treatment (BrdU with Nestin or Map2 double staining) [4]	frequency of a rat standing up per unit time, 24 hours after operation ([5]; 24 hours after operation, rat ghrelin 1 nmol subdurally together with grafted cells (10^5 cells/25 μL), 3-minute observation, control group with injured spinal cord 1.3 ± 0.6)	function of hind limbs (frequency of standing up), result in words ([5]; combination of cell grafting and local administration of ghrelin)	frequency of a rat standing up per unit time, Initial ([5]; initial, 3-minute observation)
CC(C)(N)C(=O)N[C@H](COCc1ccccc1)C(=O)N1CCC2(CC1)CN(S(C)(=O)=O)c1ccccc12 [MK-0677, reference compound]	119.5 ± 4.6	112.0 ± 13.9	105.8 ± 13.0	0.03							
COc1ccc([C@@H]2Sc3ccccc3N(CCN(C)C)C(=O)[C@@H]2OC(C)=O)cc1 [diltiazem]					did not suppress						
GSS(n-octanoyl)FLK-NH2 (GSS(Octanoyl)FLK-NH2; N-terminus assumed; SMILES CCCCCCCC(=O)OC[C@H](NC(=O)[C@H](CO)NC(=O)CN)C(=O)N[C@@H](Cc1ccccc1)C(=O)N[C@@H](CC(C)C)C(=O)N[C@@H](CCCCN)C(N)=O) [Ghrelin (1-5)-Lys-NH2]	106.9 ± 13.2	114.2 ± 11.3	103.5 ± 9.6								
GSS(n-octanoyl)FLSPK-NH2 (GSS(Octanoyl)FLSPK-NH2; N-terminus assumed; SMILES CCCCCCCC(=O)OC[C@H](NC(=O)[C@H](CO)NC(=O)CN)C(=O)N[C@@H](Cc1ccccc1)C(=O)N[C@@H](CC(C)C)C(=O)N[C@@H](CO)C(=O)N1CCC[C@H]1C(=O)N[C@@H](CCCCN)C(N)=O) [Ghrelin (1-7)-Lys-NH2]	108.3 ± 11.6	115.9 ± 14.1	140.5 ± 41.9								
Ghrelin: rat ghrelin: 28-residue peptide, third serine acylated with n-octanoyl; endogenous ligand of GHS-R1a (SEQ ID NO:3 or 4) (GSS(Octanoyl)FLSPEHQKAQQRKESKKPPAKLQPR)	112.5 ± 8.7	112.0 ± 15.0	120.4 ± 7.9			≥ 3	a large number of BrdU positive cells were detected	has an action for proliferating spinal neuronal precursor cells	8.7 ± 4.2	led to a recovery in the frequency of standing up	11.7 ± 2.3
